Measurements as given in paper PMC6811539, “Minute-scale persistence of a GPCR conformation state triggered by non-cognate G protein interactions primes signaling” (Nature Communications, 2019).

Key:
[1] = biological target: T1, β2-AR-mCherry, endogenous Gs (Homo sapiens, UniProt P07550); assay: activation of endogenous Gs (BODIPY-FL-GTPγS), native membranes expressing β2-AR-mCherry; type: biochemical
T1 construct: expressed in transfected cells; host or cells: native (not urea-stripped) membranes of HEK293T cells transiently transfected with β2-AR-mCherry
Protocol: Membranes were prepared following a published protocol[56] from HEK293T cells transiently transfected with the appropriate DNA (β2-AR-mCherry, β2-mCerulean, […]-mCherry, β2-AR-ICL3 or β2-AR-Sp). Cells were collected in culture medium and washed twice with PBS by centrifugation (300 × g, 3 min, ambient temperature). […] Cells in solution A were lysed gently (30 strokes) in a chilled Dounce homogenizer in the presence of 1.5 μg/mL aprotinin, 1.5 μg/mL leupeptin, 5 μg/mL phenylmethylsulfonyl fluoride (PMSF) and 1 mM dithiothreitol (DTT). Nuclei and intact cells were eliminated by centrifugation at 1000 × g, 5 min, 4 °C. All subsequent centrifugation steps were performed in a TLA100.4 rotor at 135,000 × g, 30 min, 4 °C. […] HEK293T cells in 15 cm dishes were transiently transfected with β2-AR-mCherry or […]-mCherry plasmid as described in the section on “Cells, Cell culture and Transfections,” earlier. Membranes were isolated and treated with urea as detailed (Membrane preparations). Urea treatment denatures and inactivates the endogenous G proteins, allowing the reconstitution of desired combinations of Gα, and βγ subunits and specific C terminus peptides. Reconstitution reactions were assembled on ice. […] The agonist-stimulated change in fluorescence counts was calculated by subtracting the early stimulation spectra from the post-stimulation spectra. Samples treated with BODIPY buffer (no agonist) were processed similarly, to determine the increase in BODIPY fluorescence without agonist stimulation, which represented nonspecific and basal incorporation of the BODIPY in the reaction time. Specific, agonist-induced change in BODIPY fluorescence was calculated by subtracting the increase in buffer-treated samples from the agonist-mediated increase. This change in fluorescence (increase) provided a measure of BODIPY-FL-GTPγS incorporation into the Gα-subunit. Each reaction provided three agonist and three mock readings. […] BODIPY incorporation was monitored as above. […] The experiment was repeated with mock buffer and agonist-specific G-protein activation was calculated.

[2] = extent of photocleavage of PC-Qp by MALDI-MS; type: physicochemical; parameters: Conc. App: unit: μM; details: for concentration of full-length PC-Qp: 50 μM input, native membranes, MALDI-MS, mean of three experiments; for Conc. App: PC-Qp full length; for PC-Qp full length (fraction, MALDI-MS): plus UV (350 nm, 2 min)
Protocol: Native membranes were prepared from cells expressing β2-mCer and were stored in sucrose-supplemented buffer A as described above (Membrane preparations). […]. Both samples were centrifuged 100,000 × g, 5 min, 4 °C to sediment the membrane. Supernatants were stored on ice for analysis by MS. Control samples containing 50 μM peptide in the buffer were also prepared.
Prior to matrix-assisted laser desorption and ionization time-of-flight MS (MALDI-TOF MS) analysis, the samples were desalted using C18 ZipTips (Millipore Corporation, Billerica, MA). The manufacturer’s standard protocol for peptide clean-up was followed. After elution from the ZipTip, 1 μL of each sample was spotted on a MALDI-TOF 384 spot stainless-steel target (Bruker Daltonics, Billerica, MA) and mixed with 1 μl of α-cyano-4-hydroxy-cinnamic acid (α-CHCA) matrix (15 mg/ml α-CHCA in 50% acetonitrile). Each spot was allowed to dry at room temperature. The target was placed in a Bruker Autoflex Speed MALDI-TOF mass spectrometer (Bruker Daltonics, Billerica, MA) equipped with a Nd-YAG 355 nm pulsed laser. The data were collected in reflectron mode, positive polarity, with an accelerating potential of 19 kV. Each spectrum was the accumulation of 4000 laser shots with complete spot raster of the laser during data collection. External calibration was performed using 0.5 μl α-CHCA and 0.5 μl of peptide standard (part# 206195, Bruker Daltonics, Billerica, MA) with Angiotensin II (monoisotopic mass [MH^+ ] 1046.5418), Angiotensin I (monoisotopic mass [MH^+ ] 1296.6848), SubstanceP (monoisotopic mass [MH^+] 1347.7354), Bombesin (monoisotopic mass [MH^+] 1619.8223), ACTH clip 1–17 (monoisotopic mass [MH^+] 2093.0862), ACTH clip 18–39 (monoisotopic mass [MH^+] 2465.1983), and Somatostatin 28 (monoisotopic mass [MH^+] 3147.4710). The Bruker data files were converted to mzXML files using MSConvertGUI tool in ProteoWizard open-source software. The mzXML files were viewed and analyzed with mMass v5.5 open-source software.

[3] = +UV (second block), replicate #1
[4] = +UV (second block), replicate #2
[5] = +UV (second block), replicate #3
[6] = −UV (first block), replicate #1
[7] = −UV (first block), replicate #2
[8] = −UV (first block), replicate #3

Substance: DTENIRFVFAAVKDTILQLNLKE(Anp)NLV [PC-Qp, photocleavable Qp, Y356 replaced by Anp]
- primed G-protein activation response after UV before mixing ([1]; PC-Qp exposed to UV before mixing with other reactants): lost
- persistence of enhanced G-protein activation after photocleavage ([1]; PC-Qp, UV after addition to membranes): 120 s
- increase in G-protein activation in response to fenoterol ([1]; fenoterol 10 μM, 3 min, Qp 30 μM or PC-Qp 50 μM, no UV): ~ 7 fold
- concentration of full-length PC-Qp ([2]; +UV (350 nm, 2 min)): 4.582 µM
- % cleavage [2, 3]: 90.1408%
- % uncleaved [2, 3]: 9.859%
- % cleavage [2, 4]: 90.4762%
- % uncleaved [2, 4]: 9.524%
- % cleavage [2, 5]: 91.8919%
- % uncleaved [2, 5]: 8.108%
- Conc. App [2, 3]: 4.93
- Conc. App [2, 4]: 4.7619
- Conc. App [2, 5]: 4.054
- Conc. App [2, 6]: 33.3333
- Conc. App [2, 7]: 37.7551
- Conc. App [2, 8]: 30.7692
- PC-Qp full length (fraction, MALDI-MS) ([2]; replicate 1): 0.098
- PC-Qp full length (fraction, MALDI-MS) ([2]; replicate 2): 0.095
- PC-Qp full length (fraction, MALDI-MS) ([2]; replicate 3): 0.081
- % cleavage [2, 6]: 33.3333%
- % uncleaved [2, 6]: 66.6667%
- % cleavage [2, 7]: 24.4898%
- % uncleaved [2, 7]: 75.5102%
- % cleavage [2, 8]: 38.4615%
- % uncleaved [2, 8]: 61.5385%
- concentration of full-length PC-Qp ([2]; −UV): 33.9526 µM
